The conditions of the data set: Crystal; DTA.

SMILES strings stand for the structures. Numbers after ± are expanded uncertainties.

Take `C[n+]1ccn(CCOCCn2cc[n+](C)c2)c1.F[P-](F)(F)(F)(F)F.F[P-](F)(F)(F)(F)F`: the Normal melting temperature came out at 98.00 ± 1 °C.
